# Test results from patent US20020072535A1 (priority 1997, published 2002).
# Assays:
# Format in all cases: in vivo
# [1] = tested on: Phytophthora infestans; test: whole plant or invertebrate; settings: in Solanum lycopersicum, 72 h, read-out: Efficiacy in %
# [2] = tested on: Pythium sp.; test: Pythium sp. test (pea)/seed treatment; settings: pea seed dressing, evaluation after 14 days
# Experimental: Pythium sp. test (pea)/seed treatment
# (§1) The active compounds are applied as dry seed dressings. These are prepared by extending the respective active compound or the active compound combination with ground minerals to give a finely pulverulent mixture which ensures uniform distribution on the seed surface.
# (§2) To dress the seed, the infected seed together with the seed dressing is shaken for 3 minutes in a sealed glass flask.
# 2×50 corns of seed are sown at a depth of 2 cm in compost soil naturally infected with phythium sp. and cultivated in a greenhouse at a temperature of about 20° C. in seed trays which receive a light regimen of 15 hours per day.
# Evaluation is carried out after 14 days. 0% means an efficacy which corresponds to that of the control, while an efficacy of 100% means that no infection is observed.
# [3] = tested on: Fusarium nivale; test: Fusarium nivale test (triticale)/seed treatment; settings: triticale seed dressing, about 3 weeks after sowing
# Experimental: Fusarium nivale test (triticale)/seed treatment
# as §1, §2
# 2×100 corns of triticale are sown at a depth of 1 cm in standard soil and cultivated in a greenhouse at a temperature of about 10° C. and a relative atmospheric humidity of about 95% in seed trays which receive a light regimen of 15 hours per day.
# About 3 weeks after sowing, the plants are evaluated for symptoms. 0% means an efficacy which corresponds to that of the control, while an efficacy of 100% means that no infection is observed.
SMILES,pest or weed control at 0.2 g/ha [1],other results
OC(Cc1ccccc1Cl)(Cn1nc[nH]c1=S)C1(Cl)CC1 (centres unmarked),0%,
O=C1c2ccccc2C(=O)N1SC(Cl)(Cl)Cl,,pest or weed control at 2 g/ha [1]: 12%
"Cc1noc(C)c1S(=O)(=O)n1c(Cl)nc2cc3c(cc21)OC(F)(F)O3 [(Ib), 1-(3,5-dimethyl-isoxazole-4-sulphonyl)-2-chloro-6,6-difluoro-[1,3]-dioxolo-[4,5f]-benzimidazole]",37%,Efficacy in % ([2]; 1000 mg/kg of seed): 4%; pest or weed control at 1 g/ha [1]: 76%; Efficacy in % ([3]; 100 mg/kg of seed): 0%; Efficacy in % ([3]; 500 mg/kg of seed): 0%
CC(C)(C)C(=O)C(Oc1ccc(Cl)cc1)n1cncn1 (centres unmarked),0%,
Cc1ccc(C(C)NC(=O)C(NC(=O)OC(C)C)C(C)C)cc1 (centres unmarked),0%,pest or weed control at 1 g/ha [1]: 0%
"O=[N+]([O-])/N=C1\NCCN1Cc1ccc(Cl)nc1 [(XXII), 1-[(6-chloro-3-pyridinyl)-methyl]-N-nitro-2-imidazolidineimine]",,Efficacy in % ([3]; 100 mg/kg of seed): 0%
COCC(=O)N(c1c(C)cccc1C)C(C)C(=O)OC (centres unmarked),0%,
"Cc1noc(C)c1S(=O)(=O)n1c(Br)nc2cc3c(cc21)OC(F)(F)O3 [(Ia), 1-(3,5-dimethyl-isoxazole-4-sulphonyl)-2-bromo6,6-difluoro[1,3]-dioxolo-[4,5f]-benzimidazole]",14%,Efficacy in % ([2]; 500 mg/kg of seed): 1%; pest or weed control at 1 g/ha [1]: 65%; Efficacy in % ([3]; 100 mg/kg of seed): 26%
CO/N=C(\C1=NOCCO1)c1ccccc1Oc1ncnc(Oc2ccccc2Cl)c1F,,pest or weed control at 1 g/ha [1]: 27%
CO/C=C(/C(=O)OC)c1ccccc1Oc1cc(Oc2ccccc2C#N)ncn1,51%,
COc1ccc(C(=CC(=O)N2CCOCC2)c2ccc(Cl)cc2)cc1OC,0%,
CC(C)(C)C(O)(CCc1ccc(Cl)cc1)Cn1cncn1 (centres unmarked),0%,
CCNC(=O)NC(=O)C(C#N)=NOC,0%,
CCC(C)(NC(=O)c1cc(Cl)c(C)c(Cl)c1)C(=O)CCl (centres unmarked),0%,
CC(C)(C)C(O)C(Oc1ccc(-c2ccccc2)cc1)n1cncn1 (centres unmarked),24%,
CO/C=C(/C(=O)OC)c1ccccc1COc1ccccc1C,0%,
CC1(C(=O)Nc2ccc(O)c(Cl)c2Cl)CCCCC1,,pest or weed control at 5 g/ha [1]: 0%
Cc1cc(C)nc(Nc2ccccc2)n1,,pest or weed control at 1 g/ha [1]: 0%
Cc1cc(C2CC2)nc(Nc2ccccc2)n1,,pest or weed control at 1 g/ha [1]: 0%
CC(C)(C)C(O)C(Oc1ccc(Cl)cc1)n1cncn1 (centres unmarked),0%,
O=[N+]([O-])/N=C1\NCCN1Cc1ccc(Cl)nc1 [drawing 67],6%,
